Measured values published in PubChem BioAssay AID248 (DTP/NCI, 2004).
Inconclusive results and toxic doses are left out. Cut-off read from the data, not from the text of the source: active = T/C of 150% or more; inactive = T/C below 125%.

System: L1210 leukemia ip in BDF1 mice, survival T/C
Test: NCI In Vivo Anticancer Drug Screen. Data for tumor model L1210 Leukemia (intraperitoneal) in B6D2F1 (BDF1) mice
Settings: endpoint: mean survival time, schedule: Q01DX001 (ip), vehicle: other, higher = longer survival
Summary of the method: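 Tumor was transplanted into mice, which were then dosed with test compound or vehicle alone. Survival was recorded for each group, and the treated figure was expressed relative to the control figure.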

Measured: T/C

Cc1cn(-c2ccccc2)c(C)c(C(=O)O)c1=O
inactive: dose: 100.0 mg/kg/injection 101 % of control | dose: 200.0 mg/kg/injection 102 % of control | dose: 400.0 mg/kg/injection 91 % of control
